According to US20260285853A1, “COMPOUNDS AND METHODS FOR MODULATING SPLICING” (REMIX THERAPEUTICS INC., priority 2023, published 2026):

What was measured:
Format in all cases: cell-based
[1] = tested on: HTT mRNA; assay: Splicing RT-qPCR assay (THP), Table 2A; settings: Table 2A (THP); for AC50: AJ mRNA increase, read-out: HTT AJ (increase in alternative junction mRNA, AC50); for IC50: CJ mRNA decrease, read-out: HTT CJ (decrease in canonical junction mRNA, IC50)
[2] = tested on: MYB mRNA; assay: Splicing RT-qPCR assay (THP), Table 2A; settings: Table 2A (THP); for AC50: AJ mRNA increase, read-out: MYB AJ (increase in alternative junction mRNA, AC50); for IC50: CJ mRNA decrease, read-out: MYB CJ (decrease in canonical junction mRNA, IC50)
[3] = tested on: HTT mRNA; assay: Gene panel canonical junction qPCR assay, decrease in CJ mRNA, Table 3; settings: decrease in canonical junction (CJ) mRNA, gene panel qPCR, Table 3
Outline: (§1)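 Cells: A673 or K562; 24 h compound exposure, 37 °C, 5% CO2; 11-pt 3-fold series from 10 uM final; DMSO ≤0.25%. Lysate → cDNA → qPCR with junction-spanning primers/probe for CJ transcript. ΔCt vs housekeeper, ΔΔCt vs DMSO, 2^(−ΔΔCt), % response, 4PL → IC50.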

[4] = tested on: MYB mRNA; assay: as above; settings: decrease in canonical junction (CJ) mRNA, gene panel qPCR, Table 3
Outline: as §1

[5] = tested on: SH-SY5Y (human neuroblastoma) cells; assay: Cell viability, Cell Titer Glo 2.0 assay; settings: read-out: Viability SHSY5Y.3 GI50
Outline: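 CellTiter-Glo 2.0 luminescence read-out after 72 h compound exposure (37 °C, 5% CO2); medium-only wells as blank. DMSO 0.1% final.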

| Structure (SMILES) | AC50 [1] [nM] | IC50 [1] [nM] | AC50 [2] [nM] | IC50 [2] [nM] | IC50 [3] [nM] | IC50 [4] [nM] | GI50 [5] [nM] |
| --- | --- | --- | --- | --- | --- | --- | --- |
| COc1nc2nn(C)cc2cc1NC(=O)c1c(F)cc(N2CCC(NC3CC3)CC2)c2cn(C)nc12 [Compound 431, 4-[4-(cyclopropylamino)-1-piperidyl]-6-fluoro-N-(6-methoxy-2-methyl-pyrazolo-[3,4-b]pyridin-5-yl)-2-methyl-indazole-7-carboxamide] | 100 to 1000 | 100 to 1000 | < 100 | < 100 | 100 to 1000 | < 100 | 100 to 1000 |
| COc1cn2nc(C)cc2cc1NC(=O)c1c(F)cc(N2CCC(NC3CC3)CC2)c2cn(C)nc12 [Compound 432, 4-[4-(cyclopropylamino)-1-piperidyl]-6-fluoro-N-(6-methoxy-2-methyl-pyrazolo[1,5-a]pyridin-5-yl)-2-methyl-indazole-7-carboxamide] | 100 to 1000 | 100 to 1000 | < 100 | < 100 | 100 to 1000 | < 100 | < 100 |
| COc1c(NC(=O)c2c(F)cc(N3CCC(NC4CC4)CC3)c3cn(C)nc23)cc2cn(C)nc2c1Cl [Compound 433, N-(7-chloro-6-methoxy-2-methyl-indazol-5-yl)-4-[4-(cyclopropylamino)-1-piperidyl]-6-fluoro-2-methyl-indazole-7-carboxamide] | 100 to 1000 | 100 to 1000 | < 100 | < 100 | 100 to 1000 | < 100 | < 100 |
| COc1cc2nn(C)cc2cc1NC(=O)c1cnc(N2CCC(NC3CC3)CC2)c2cn(C)nc12 [Compound 434, 4-[4-(cyclopropylamino)-1-piperidyl]-N-(6-methoxy-2-methyl-indazol-5-yl)-2-methyl-pyrazolo[4,3-c]pyridine-7-carboxamide] | 100 to 1000 | 100 to 1000 | < 100 | < 100 | 100 to 1000 | < 100 | 1000 to 10000 |
| CNc1cc(N2CCC(NC3CC3)CC2)c2cn(C)nc2c1C(=O)Nc1cc2cn(C)nc2cc1OC [Compound 435, 2,2,2-trifluoroacetate] | > 10000 | > 10000 | > 10000 | > 10000 | > 10000 | > 10000 | 1000 to 10000 |
| COc1cc2nn(C)cc2cc1NC(=O)c1c(Cl)cc(N2CCC(NC3CC3)CC2)c2cn(C)nc12 [Compound 436, 6-chloro-4-[4-(cyclopropylamino)-1-piperidyl]-N-(6-methoxy-2-methyl-indazol-5-yl)-2-methyl-indazole-7-carboxamide] | > 10000 | > 10000 | 100 to 1000 | 100 to 1000 | > 10000 | 100 to 1000 | 1000 to 10000 |
| COc1cc2nn(C)cc2cc1C#Cc1ccc(N2CCC(NC3CC3)CC2)c2cn(C)nc12 [Compound 437, N-cyclopropyl-1-[7-[2-(6-methoxy-2-methyl-indazol-5-yl)ethynyl]-2-methyl-indazol-4-yl]-piperidin-4-amine] | > 10000 | > 10000 | > 10000 | > 10000 | > 10000 | > 10000 | 1000 to 10000 |
| Cn1cc2cc(NC(=O)c3c(F)cc(N4CCC(NC5CC5)CC4)c4cn(C)nc34)c(OC3CC3)cc2n1 [Compound 438, N-[6-(cyclopropoxy)-2-methyl-indazol-5-yl]-4-[4-(cyclopropylamino)-1-piperidyl]-6-fluoro-2-methyl-indazole-7-carboxamide] | > 10000 | > 10000 | > 10000 | > 10000 | > 10000 | > 10000 | > 10000 |
| Cn1cc2cc(NC(=O)c3c(F)cc(N4CCC(NC5CC5)CC4)c4cn(C)nc34)c(Cl)cc2n1 [Compound 439, N-(6-chloro-2-methyl-indazol-5-yl)-4-[4-(cyclopropylamino)-1-piperidyl]-6-fluoro-2-methyl-indazole-7-carboxamide] | > 10000 | > 10000 | > 10000 | > 10000 | > 10000 | > 10000 | > 10000 |
| COc1cc2nc(C)cn2cc1NC(=O)c1cnc(N2CCC(NC3CC3)CC2)c2cn(C)nc12 [Compound 440, 4-[4-(cyclopropylamino)-1-piperidyl]-N-(7-methoxy-2-methyl-imidazo[1,2-a]-pyridin-6-yl)-2-methyl-pyrazolo[4,3-c]-pyridine-7-carboxamide] | 1000 to 10000 | 1000 to 10000 | < 100 | 100 to 1000 | 1000 to 10000 | 100 to 1000 | 100 to 1000 |
| COc1cc2nn(C)cc2cc1NC(=O)c1c(NCCO)cc(N2CCC(NC3CC3)CC2)c2cn(C)nc12 [Compound 441, 4-[4-(cyclopropylamino)-1-piperidyl]-6-(2-hydroxyethylamino)-N-(6-methoxy-2-methyl-indazol-5-yl)-2-methyl-indazole-7-carboxamide] | 1000 to 10000 | 1000 to 10000 | 1000 to 10000 | 1000 to 10000 | 1000 to 10000 | 1000 to 10000 | 1000 to 10000 |
| COCCNc1cc(N2CCC(NC3CC3)CC2)c2cn(C)nc2c1C(=O)Nc1cc2cn(C)nc2cc1OC [Compound 442, 4-[4-(cyclopropylamino)-1-piperidyl]-6-(2-methoxyethylamino)-N-(6-methoxy-2-methyl-indazol-5-yl)-2-methyl-indazole-7-carboxamide] | > 10000 | > 10000 | > 10000 | > 10000 | > 10000 | > 10000 | 1000 to 10000 |
| COc1cc2nn(C)cc2cc1NC(=O)c1ccc(N2CCC(NC3CC3)CC2)c2cc(CO)nn12 [Compound 443, 4-(4-(cyclopropylamino)piperidin-1-yl)-2-(hydroxymethyl)-N-(6-methoxy-2-methyl-2H-indazol-5-yl)pyrazolo[1,5-a]pyridine-7-carboxamide 2,2,2-trifluoroacetate] | 100 to 1000 | 100 to 1000 | < 100 | 100 to 1000 | 100 to 1000 | 100 to 1000 | 100 to 1000 |
| COc1cc2nn(C)cc2cc1NC(=O)c1ccc(N2CCC(NC3CC3)CC2)c2cn(C)nc12 [Compound 444, 4-[4-(cyclopropylamino)-1-piperidyl]-N-(6-methoxy-2-methyl-indazol-5-yl)-2-methyl-indazole-7-carbox-amide] | 1000 to 10000 | 1000 to 10000 | < 100 | 100 to 1000 | 1000 to 10000 | 100 to 1000 | 100 to 1000 |
| COc1cc2nn(C)cc2c(Cl)c1NC(=O)c1c(F)cc(N2CCC(NC3CC3)CC2)c2cn(C)nc12 [Compound 445, N-(4-chloro-6-methoxy-2-methyl-indazol-5-yl)-4-[4-(cyclopropylamino)-1-piperidyl]-6-fluoro-2-methyl-indazole-7-carboxamide 2,2,2-trifluoroacetate] | > 10000 | > 10000 | > 10000 | > 10000 | > 10000 | > 10000 | > 10000 |
| COc1cc2nn(C)cc2cc1C#Cc1c(F)cc(N2CCC(NC3CC3)CC2)c2cn(C)nc12 [Compound 446, N-cyclo-propyl-1-[6-fluoro-7-[2-(6-methoxy-2-methyl-indazol-5-yl)-ethynyl]-2-methyl-indazol-4-yl]-piperidin-4-amine] | > 10000 | 1000 to 10000 | > 10000 | 1000 to 10000 | 1000 to 10000 | 1000 to 10000 | 1000 to 10000 |
| COc1c(NC(=O)c2c(F)cc(N3CCC(NC4CC4)CC3)c3cn(C)nc23)ccn2nc(C)cc12 [Compound 447, 4-(4-(cyclopropylamino)piperidin-1-yl)-6-fluoro-N-(4-methoxy-2-methylpyrazolo-[1,5-a]pyridin-5-yl)-2-methyl-2H-indazole-7-carboxamide 2,2,2-trifluoroacetate] | > 10000 | > 10000 | > 10000 | 1000 to 10000 | > 10000 | 1000 to 10000 | 1000 to 10000 |
| COc1cc2n[nH]cc2cc1NC(=O)c1c(F)cc(N2CCC(NC3CC3)CC2)c2cn(C)nc12 [Compound 449, 4-[4-(cyclopropylamino)-1-piperidyl]-6-fluoro-N-(6-methoxy-2H-indazol-5-yl)-2-methyl-indazole-7-carboxamide] | > 10000 | > 10000 | > 10000 | > 10000 | > 10000 | > 10000 | > 10000 |
| COc1cc2nn(C)cc2cc1NC(=O)c1c(N)cc(N2CCC(NC3CC3)CC2)c2cn(C)nc12 [Compound 450, 6-amino-4-[4-(cyclopropylamino)-1-piperidyl]-N-(6-methoxy-2-methyl-indazol-5-yl)-2-methyl-indazole-7-carboxamide] | > 10000 | > 10000 | > 10000 | > 10000 | > 10000 | > 10000 | 1000 to 10000 |
